Experimental data published in US10537583B2, “Oral formulation of A-nor-5α androstane compound” (priority 2014, dated 2020).
Like-named read-outs stand apart in the source and are kept apart here.

How the values were obtained:
[1] = n-octanol, 37° C., n = 3
Method: PBS with different pH was prepared, and oil-water partition coefficient of A-nor-5α androstane compound (Ia) in a buffer solution with different pH (e.g., 2.0, 4.5, 5.0, 6.0, 6.8, 7.4, respectively) was determined by shake-flask method. Water-saturated n-octanol was used to prepare a stock solution of A-nor-5α androstane compound, concentration of which was about 10 mg/mL. A variety of n-octanol-saturated PBS and aqueous solution (5 ml) was taken and added into glass tubes with plug. 0.5 mL of stock solution of A-nor-5α-androstane compound was added. The tubes were sealed completely and subjected to a 37° C. thermostatic oscillator, and sampled after shaking for 24 h. Samples from water phase and oil phase were taken for analysis by HPLC, respectively. The drug concentrations in water and oil phase were calculated. According to […], oil-water partition coefficient (Log P) was calculated and the results are shown in Table 2.

[2] = Beagle dogs, 1.0 mg/kg by gastric gavage
[3] = for Ka (absorption rate constant) / P (cumulative absorption percentage) / Q (absorption dose in 2 hours): n = 3
Method: A suitable concentration of intestinal circulating liquid comprising A-nor-5α-androstane compounds (Ia) was prepared by using PBS (pH 5.5 and pH 6.8) containing phenol red. Rats were fasting over 12 hours before the experiment and then subjected to intraperitoneal injection with urethane solution (dose 4 mL/kg) at a concentration of 0.3 g/ml for anesthesia. The rats were fixed and a 3 cm incision was made along the medioventral line. The duodenum (start from 1 cm below the pyloru, intestinal circulating fluid comprising A-nor-5α androstane compound, pH 5.5), the jejunum (start from […], intestinal circulating fluid comprising A-nor-5α androstane compound, pH 6.8), and the ileum (start from 30 cm below the pylorus, intestinal circulating fluid comprising A-nor-5α androstane compound, pH 6.8) were incubated and ligated. Preheated saline (37° C.) was used to clean the intestinal contents, and then the air (37° C.) was ventilated into the intestine to remove the saline. The wound was covered with dressing, and infrared lamp was used to keep warm (37° C.). The reflux device was connected and after 50 ml of drug-containing circulating fluid at a constant temperature of 37° C. was balanced at 3 mL/min for 5 min, timing was started when the flow rate was adjusted to 1 mL/ml. Samples (1 mL for each) were taken at 0, 15, 30, 45, 60, 90, and 120 min, while adding blank circulating fluid (1 mL). The sample was subjected to HPLC analysis after appropriate treatment. The volume of circulating fluid was corrected according to the concentration of phenol red. Then the remained amounts of drug X were calculated by the concentration of A-nor-5α androstane compounds and the volume of circulating fluid. Line slope is the absorption rate constant (Ka) of a drug. The cumulative absorption percentage (P) of the drug is obtained by comparing the absorption dose (Q) of a drug in 2 hours to the initial dose (X0) before absorption.

[4] = From the text: It mainly relies on passive diffusion mechanism for transport, uptake and absorb in the body and the uptake amounts are dependent on the time and dose. A-nor-5α-androstane compound can be administered by oral pathway. […] Therefore, an oral formulation, such as ordinary oral tablet, oral capsule and other sustained-release preparation, is designed according to the present invention.
Caco-2 cells [5] = system: Caco-2 cells
Method: Caco-2 cells were spotted on a six-well plate. When the cells were grown to an inoculation density of 8×10^4 cells/mL, the cells were cultured with the drug-containing medium. The relationship between cells uptake and uptake time, the concentration of A-nor-5α-androstane compound (Ia) were examined. After the experiment was completed, the cells were scraped off and the cells were broken by multiple freezing-thawing. The samples of the cells were precipitated by acetonitrile and then subjected to HPLC analysis.

Caco-2 cells [6] = system: Caco-2 cells; remark: listed apart in the source
Method: The qualified Transwell plate was taken. The nutrient solution comprising drugs was prepared by using Hank's balanced salt solution (HBSS) to study the bidirectional transfer of A-nor-5α-androstane compounds (Ia) with different concentrations in Caco-2 cells.

[7] = 37° C., 72 hours, n = 3
Method: Phosphate buffer solution (PBS) with different pH was prepared (pH is 1.0, 5.0, 5.5, 5.8, 6.0, 6.8 and 7.4). The equilibrium solubility of A-nor-5α androstane compounds (Ia) in PBS with different pH was determined by using Equilibrium Method. Method: 5 mL of each medium was removed into test tubes with plug and about 30 mg of crude drugs comprising A-nor-5α androstane compounds were added into the tubes respectively. The tubes were subjected to a thermostatic oscillator (37° C.) and vibrated at 100 rpm. After 72 hours, the sample was taken and subjected to HPLC analysis.

[8] = rat duodenum, circulating fluid pH 5.5
[9] = rat ileum, circulating fluid pH 6.8
[10] = rat jejunum, circulating fluid pH 6.8
[11] = rat jejunum, concentration 25.0 μg/mL
[12] = rat jejunum, concentration 50.0 μg/mL
[13] = rat jejunum, concentration 100.0 μg/mL

With `C#C[C@@]1(O)C[C@@H]2CC[C@@H]3[C@H](CC[C@@]4(C)[C@H]3CC[C@@]4(O)C#C)[C@@]2(C)C1` [Ia, 2α, 17α-diethynyl-A-nor-5α-androstane-2β, 17β-dihydroxy compound] the LogP ([1]; buffer pH 2.0) was “∞”, the LogP ([1]; buffer pH 4.5) was 4.19 and the LogP ([1]; buffer pH 5.0) was 3.80. It also gave a LogP ([1]; buffer pH 6.0) of 2.52, a LogP ([1]; buffer pH 6.8) of 0.98 and a LogP ([1]; buffer pH 7.4) of 0.11. The absolute bioavailability ([2]; based on AUC0-t of crude drug) was 56.8%, the absolute bioavailability ([2]; based on AUC0-t of total main metabolites in vivo) was 93.0% and the “Ka (absorption rate constant)” value [3, 8] was 4.27 ± 1.53 ×10^−3 min. For the same molecule, the “P (cumulative absorption percentage)” value [3, 8] was 45.48 ± 9.33%, the “Q (absorption dose in 2 hours)” value [3, 8] was 324.42 ± 65.21 μg/2 h and the “Ka (absorption rate constant)” value [3, 9] was 7.57 ± 2.56 ×10^−3 min. For the same molecule, the “P (cumulative absorption percentage)” value [3, 9] was 65.23 ± 11.80%, the “Q (absorption dose in 2 hours)” value [3, 9] was 1603.03 ± 289.37 μg/2 h and the “Ka (absorption rate constant)” value [3, 10] was 9.53 ± 4.22 ×10^−3 min. The “P (cumulative absorption percentage)” value [3, 10] was 71.68 ± 13.48%, the “Q (absorption dose in 2 hours)” value [3, 10] was 1809.26 ± 369.52 μg/2 h and the “Ka (absorption rate constant)” value [3, 11] was 18.87 ± 2.94 ×10^−3 min. The “P (cumulative absorption percentage)” value [3, 11] was 90.27 ± 3.28%, the “Q (absorption dose in 2 hours)” value [3, 11] was 1063.39 ± 75.81 μg/2 h and the “Ka (absorption rate constant)” value [3, 12] was 9.53 ± 4.22 ×10^−3 min. The “P (cumulative absorption percentage)” value [3, 12] was 71.68 ± 13.48%, the “Q (absorption dose in 2 hours)” value [3, 12] was 1809.26 ± 369.52 μg/2 h and the “Ka (absorption rate constant)” value [3, 13] was 5.50 ± 0.36 ×10^−3 min. The “P (cumulative absorption percentage)” value [3, 13] was 53.25 ± 2.77%, the “Q (absorption dose in 2 hours)” value [3, 13] was 2636.52 ± 137.86 μg/2 h and the “relationship between absorption and concentration” value ([3]; rat jejunum, y=20.34x+649.7, r=0.9869) was “good linear relationship”. The absorption percentages ([3]; rat, both jejunum and ileum) was greater than 50%, the water dissolution rate [4] was 6.5 µg/mL and the “relationship of uptake amounts with uptake time” value (Caco-2 cells [5]; Y=0.204x+6.107, r=0.9952) was “linear relationship with the uptake time”. For the same molecule, the “relationship of uptake amounts with concentration” value (Caco-2 cells [5]; y=40.59x−10.47, r=0.9994) was “linear relationship with the concentration”, the “apparent permeability coefficient (Papp)” value (Caco-2 cells [6]; all Papps under various conditions) was greater than 1 ×10⁻⁶ cm/s and the “ER (efflux rate)” value (Caco-2 cells [6]; concentration 0.5 mg/mL) was 1.94. For the same molecule, the “Papp A-B” value (Caco-2 cells [6]; concentration 0.5 mg/mL) was 2.59 ± 0.17 ×10^−6 cm/s, the “Papp B-A” value (Caco-2 cells [6]; concentration 0.5 mg/mL) was 5.02 ± 0.50 ×10^−6 cm/s and the “ER (efflux rate)” value (Caco-2 cells [6]; concentration 0.75 mg/mL) was 1.62. The “Papp A-B” value (Caco-2 cells [6]; concentration 0.75 mg/mL) was 4.00 ± 0.15 ×10^−6 cm/s, the “Papp B-A” value (Caco-2 cells [6]; concentration 0.75 mg/mL) was 6.46 ± 0.71 ×10^−6 cm/s and the “ER (efflux rate)” value (Caco-2 cells [6]; concentration 1.0 mg/mL) was 1.82. For the same molecule, the “Papp A-B” value (Caco-2 cells [6]; concentration 1.0 mg/mL) was 4.98 ± 0.16 ×10^−6 cm/s, the “Papp B-A” value (Caco-2 cells [6]; concentration 1.0 mg/mL) was 9.07 ± 0.35 ×10^−6 cm/s and the equilibrium solubility ([7]; pH 1.0 hydrochloric acid) was 7.85 ± 0.57 µg/mL. For the same molecule, the equilibrium solubility ([7]; pH 5.0 PBS) was 14.73 ± 0.80 µg/mL, the equilibrium solubility ([7]; pH 5.5 PBS) was 45.73 ± 0.23 µg/mL and the equilibrium solubility ([7]; pH 5.8 PBS) was 70.52 ± 1.28 µg/mL. For the same molecule, the equilibrium solubility ([7]; pH 6.0 PBS) was 144.54 ± 0.77 µg/mL, the equilibrium solubility ([7]; pH 6.8 PBS) was 1388.16 ± 90.95 µg/mL and the equilibrium solubility ([7]; pH 7.4 PBS) was 4507.97 ± 487.04 µg/mL.
